Measured values from article PMC6789647, “α-Glucosidase Inhibitory Activity of Cycloartane-Type Triterpenes Isolated from Indonesian Stingless Bee Propolis and Their Structure–Activity Relationship” (Pharmaceuticals, 2019).

Columns and labels:
[1] = tested on: α-glucosidase; conditions: cited from earlier work
[2] = tested on: α-glucosidase from the rat small intestine; experiment: Inhibitory activity assay for rat intestinal α-glucosidase; type: biochemical; conditions: for IC50: rat small intestine α-glucosidase, means ± SEs, n = 3, ND: not detected, isolated compounds tested at 0.1–10 µg/mL
Method: In a centrifuge tube at 4 °C, 200 mg of rat intestine acetone granules (Sigma-Aldrich, Tokyo, Japan) was placed in 8 mL of physiological saline (0.9 g of NaCl was dissolved in 100 mL pure water). The resulting suspension was homogenized with sonication equipment (Branson, Danbury, CT, USA) for 60 s (ultrasonic treatment cycles: 50, output control: 5) in an ice bath. The resulting homogenate was centrifuged (14,400× g, −21 °C for 20 min) with a high-speed refrigerated centrifuge (Himac CR21N, Hitachi Koki Co, Ltd., Tokyo, Japan). The resulting supernatant was used as an enzyme preparation, and stored at −30 °C until use. Then the measurement of inhibitory activity of isolated compounds against α-glucosidase from the rat small intestine followed the method used to measure the activity of yeast enzymes (S. cerevisiae). The concentration of the isolated compounds used is 0.1–10 µg/mL (0.2–23 µM).

[3] = molecular target: α-glucosidase from Saccharomyces cerevisiae (Saccharomyces cerevisiae, UniProt P53341); experiment: Inhibitory activity assay for yeast α-glucosidase (pNPG substrate); type: biochemical
Method: The inhibitory activity of α-glucosidase from Saccharomyces cerevisiae (Sigma-Aldrich, Tokyo, Japan) of the isolation compounds was determined using a previously reported procedure with modifications. p-Nitrophenyl α-glucopyranoside (pNPG) (Sigma-Aldrich, Tokyo, Japan) was used as a substrate. Other chemicals used were of analytical grade. […] Then, 40 µL of 3 mM pNPG solution was added, and the mixture was incubated at 37 °C for 20 min. The reaction was stopped by adding a solution of Na2CO3 (0.1 M, 200 µL), and the absorbance (at 405 nm) of the resulting solution was measured via an Epoch microplate reader (Biotech, Tokyo, Japan). All experiments were performed in three independent replicates. The inhibition of isolated compounds on α-glucosidase was calculated as follows:(2) Inhibition (%)=(1−A1/A0)×100 where A0 is the absorbance of the control, and A1 is the absorbance of the propolis samples. The IC50 values were determined as the half-maximal inhibitory concentration of the inhibitor (isolated compound) which provides 50% inhibition.

[4] = molecular target: α-glucosidase (Saccharomyces cerevisiae, UniProt P53341); experiment: Determination of inhibitory type by kinetic analysis (Lineweaver–Burk, Dixon plots); type: biochemical; conditions: for Inhibition Mode: Lineweaver–Burk plot, inhibitor 0, 0.2, 2 µg/mL, p-NPG substrate; for Ki’: mixed inhibition, affinity for enzyme–substrate
Method: Inhibitory mechanisms of isolated triterpenes against α-glucosidase at some concentrations (0, 0.2, and 2 µg/mL) were analyzed by the Lineweaver–Burk plot (Figure 2 and Figure 3).
The inhibition activity of isolated triterpenes against α-glucosidase was measured with different concentrations (0, 1, 2.5, 5, and 10 mM) of p-NPG as a substrate in the presence or absence of different concentrations (0, 0.2, and 2 µg/mL) of the compounds. The mode of inhibition was then determined by Lineweaver–Burk plot analysis, which was calculated using Michaelis–Menten kinetics. Inhibition constants (Ki) were determined by analysis of Dixon plots and plots of the Y-intercept of the Lineweaver–Burk plot versus the inhibitor [44, 49]. All data are expressed as means ± standard errors of triplicate determinations.

[5] = DPPH free radical scavenging activity; conditions: means ± SEs, n = 3; for DPPH IC50 / IC50: isolated compounds
Method: The antioxidative activities of the fractions were assayed for the scavenging of 2,2-diphenyl-1-picrylhydrazyl (DPPH) (Sigma-Aldrich, Darmstadt, Germany). Free radicals were assayed using a previously reported method [48] with some modifications. The fractions of EEP, isolated compounds and Trolox (Sigma-Aldrich, Darmstadt, Germany) were dissolved in methanol to make a 50 ppm solution. Each of the test sample solutions (0, 20, 40, 60, 80, and 100 µL) were added into a mixture (0.9 mL) of 0.4 mM DPPH solution, 20% methanol aqueous solution, and 0.2 M MES (2-(N-morpholino) ethanesulfonic acid) (Dojindo, Wako Junyaku Kogyo Co., Ltd., Osaka, Japan) buffer solution (1:1:1). The resulting mixtures were shaken on a vortex mixer and allowed to stand for 20 min. The absorbance of the remaining DPPH was measured with a microplate reader (Biotech, Tokyo, Japan) at 520 nm. […] The inhibitory concentration that results in 50% scavenging of DPPH radicals (IC50) was estimated based on the plot of inhibition versus the final concentration of the propolis samples. The results are expressed in µg Trolox Equivalents (TE) per mL.

α-glucosidase (Saccharomyces cerevisiae, UniProt P53341), sequence (P53341 whole entry): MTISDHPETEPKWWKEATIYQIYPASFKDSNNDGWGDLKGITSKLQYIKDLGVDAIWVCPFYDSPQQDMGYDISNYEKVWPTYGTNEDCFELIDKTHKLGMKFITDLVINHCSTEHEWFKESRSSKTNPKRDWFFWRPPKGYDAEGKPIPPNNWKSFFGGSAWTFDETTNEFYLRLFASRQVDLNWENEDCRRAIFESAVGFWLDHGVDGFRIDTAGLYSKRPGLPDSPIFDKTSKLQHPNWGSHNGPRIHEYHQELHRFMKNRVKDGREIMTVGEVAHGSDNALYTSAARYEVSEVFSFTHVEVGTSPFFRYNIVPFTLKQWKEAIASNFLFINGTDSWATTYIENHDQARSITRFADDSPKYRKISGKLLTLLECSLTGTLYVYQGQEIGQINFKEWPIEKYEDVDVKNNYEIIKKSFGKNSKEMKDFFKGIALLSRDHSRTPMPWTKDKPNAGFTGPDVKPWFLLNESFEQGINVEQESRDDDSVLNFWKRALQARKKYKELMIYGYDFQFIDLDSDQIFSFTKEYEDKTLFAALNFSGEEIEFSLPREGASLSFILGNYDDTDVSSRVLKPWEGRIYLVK
α-glucosidase from Saccharomyces cerevisiae, sequence (P53341 whole entry): as above

For Oc1cc(O)c2c(c1)O[C@H](c1ccc(O)c(O)c1)[C@H](O)C2 [(–)-Epicatechin], the “inhibitory value on α-glucosidase” value [1] is listed as “around 96%”, the “inhibitory activity against α-glucosidase from the rat small intestine, in words” value [2] is listed as “no inhibitory activity” and the “inhibitory activity against α-glucosidase from the yeast (S. cerevisiae), in words” value [3] is listed as “showed inhibitory activity”.

In the case of CC(C)=CCC[C@@H](C)[C@H]1CC[C@@]2(C)[C@@H]3CC[C@H]4C(C)(C)[C@@H](O)CC[C@@]45C[C@@]35CC[C@]12C [Cycloartenol (2), cycloartenol], the “Inhibition Mode” value [4] is reported as “Uncompetitive”, the “Inhibition Mode” value ([4]; listed as 2) is reported as “uncompetitive inhibition” and the “DPPH IC50” value [5] is reported as 120.21 ± 11.2 µg/mL. It also gave an IC50 [5] of 282 ± 26.3 µM.

For Cc1c(C)c2c(c(C)c1O)CCC(C)(C(=O)O)O2 (centres unmarked) [Trolox, reference compound], the “Antioxidant Activity IC50” value ([5]; DPPH, propolis fractions P1 and P2) was 6.76 ± 0.395 µg/mL, the “DPPH IC50” value [5] was 7.17 ± 0.13 µg/mL and the IC50 [5] was 28.6 ± 0.52 µM.

For C/C(=C\CC[C@@H](C)[C@H]1CC[C@@]2(C)[C@@H]3CC[C@H]4C(C)(C)C(=O)CC[C@@]45C[C@@]35CC[C@]12C)C(=O)O [Mangiferonic acid (4), mangiferonic acid], the “Inhibition Mode” value [4] was “Mixed inhibition”, the “Inhibition Mode” value ([4]; listed as 4) was “mixed-type inhibition” and the “Ki’” value [4] was 3.23 µM. For the same compound, the “DPPH IC50” value [5] was 17.16 ± 2.98 µg/mL and the IC50 [5] was 37.7 ± 6.55 µM.

In the case of C=C(CCC(C)C1CCC2(C)C3CCC4C(C)(C)C(O)CCC45CC35CCC12C)C(C)C(=O)O (centres unmarked) [Ambolic acid (5), ambolic acid], the “Inhibition Mode” value [4] is reported as “Mixed inhibition”, the “Inhibition Mode” value ([4]; listed as 5) is reported as “mixed-type inhibition” and the “Ki’” value [4] is reported as 4.58 µM. For the same compound, the “DPPH IC50” value [5] was 132.30 ± 13.9 µg/mL and the IC50 [5] was 281 ± 29.5 µM.

For C/C(=C\CC[C@@H](C)[C@H]1CC[C@@]2(C)[C@@H]3CC[C@H]4C(C)(C)[C@@H](O)CC[C@@]45C[C@@]35CC[C@]12C)C(=O)O [Mangiferolic acid (1), mangiferolic acid], the “Inhibition Mode” value [4] was “Uncompetitive”, the “Inhibition Mode” value ([4]; listed as 1) was “uncompetitive inhibition” and the “DPPH IC50” value [5] was 12.38 ± 3.0 µg/mL. For the same compound, the IC50 [5] was 27.1 ± 6.57 µM.

In the case of C[C@H]1O[C@H](O[C@H]2[C@H](O)[C@@H](O)[C@@H](O[C@H]3[C@H](O)[C@@H](O)C(O)O[C@@H]3CO)O[C@@H]2CO)[C@H](O)[C@@H](O)[C@@H]1N[C@H]1C=C(CO)[C@@H](O)[C@H](O)[C@H]1O (some centres unmarked) [Acarbose], the “inhibitory activity against α-glucosidase from the rat small intestine, in words” value [2] is reported as “very high inhibitory activity”, the IC50 [2] is reported as 209 ± 0.96 µM and the “inhibitory activity against α-glucosidase from the yeast (S. cerevisiae), in words” value [3] is reported as “no activity at all”.

For C=C(CCC(C)C1CCC2(C)C3CCC4C(C)(C)C(=O)CCC45CC35CCC12C)C(C)C(=O)O (centres unmarked) [Ambonic acid (3), ambonic acid], the “Inhibition Mode” value [4] was “Mixed inhibition”, the “Inhibition Mode” value ([4]; listed as 3) was “mixed-type inhibition” and the “Ki’” value [4] was 6.42 µM. For the same compound, the “DPPH IC50” value [5] was 42.45 ± 4.5 µg/mL and the IC50 [5] was 90.6 ± 9.6 µM.

For C=C(CC[C@@H](C)[C@H]1CC[C@@]2(C)[C@@H]3CC[C@H]4C(C)(C)C(=O)CC[C@@]45C[C@@]35CC[C@]12C)C(C)C [24-methylenecycloartenone], the IC50 ([1]; isolated from Schisandra chinensis, read-out: IC50 against α-glucosidase) is given as 2.36 µM.

With OCC(CO)N[C@H]1C[C@](O)(CO)[C@@H](O)[C@H](O)[C@H]1O [Voglibose] the “inhibitory activity against α-glucosidase from the rat small intestine, in words” value [2] was “very high inhibitory activity” and the IC50 [2] was 78.6 ± 1.27 µM.
